# Source: patent US5190923A, “Peptide compounds containing a cyclic amide structure” (Adir Et Compagnie, priority 1990, dated 1993)
# Tests used:
# Type in all cases: in vivo
# [1] = system: xylazine-induced loss of righting reflex; test: Xylazine induced inhibition of the righting reflex in rats; settings: IP
# Method: The administration of a central α2 agonist, xylazine, to rats leads to loss of the animal's righting reflex. This effect is antagonized by yohimbine (α2 antagonist) and by agents facilitating noradrenaline release.
# TRH antagonizes the effect of xylazine, and the median effective dose is close to 10 mg/kg IP. Under the same conditions, the ED50 of the compounds of Examples 1 and 5 are 0.1 and 0.3 mg/kg, respectively.
# [2] = system: sodium-dependent choline uptake (HACU); test: Cholinergic deficit induced by barbiturate narcosis in mice (hippocampal HACU); settings: mouse hippocampus
# [3] = system: oxotremorine-induced tremor; test: Oxotremorine-induced tremor in mice; settings: for minimal active dose (potentiation of tremor): IP
# Method: Administered at a dose of 0.5 mg/kg IP, oxotremorine, a non-selective M1 -M2 muscarinic agonist leads to cholinergic symptoms of central origin, such as tremor. In control animals, the maximum tremor-inducing effect is observed after 15 minutes, and this effect disappears completely in the course of 45 to 60 minutes.
# The administration of TRH (10 mg/kg IP) 30 minutes before that of oxotremorine potentiates the tremor (+50%) at its peak of intensity (15 minutes), but prolongs it to only a very small extent (15 minutes:+20%). The minimal active dose is 5 mg/kg.
# Under the same conditions, the compounds of the invention also exert the same potentiating effect, but at much lower minimal active doses, and this effect persists for a further 60 minutes after the injection of oxotremorine. Thus, the minimal active doses are, for example, as follows: […]
# [4] = 30 minutes before oxotremorine 0.5 mg/kg IP
Compound,"median effective dose (ED50), antagonism of the effect of xylazine [1] [mg/kg]","counteraction of the fall in HACU ([2]; 1 mg/kg IP, administered 30 minutes before induction of narcosis) [%]","counteraction of the fall in HACU ([2]; 3 mg/kg IP, administered 30 minutes before induction of narcosis) [%]","minimal active dose (potentiation of tremor) [3, 4] [mg/kg]","counteraction of the fall in HACU ([2]; 10 mg/kg IP, administered 30 minutes before pentobarbital) [%]","counteraction of the fall in HACU ([2]; 10 mg/kg IP, administered simultaneously with pentobarbital (60 mg/kg IP)) [%]","counteraction of the fall in HACU ([2]; 30 mg/kg IP, administered 30 minutes before pentobarbital)","potentiation of the tremor at its peak of intensity (15 minutes) ([3]; 10 mg/kg IP, 30 minutes before oxotremorine 0.5 mg/kg IP)","prolongation of the tremor ([3]; 10 mg/kg IP, 30 minutes before oxotremorine, printed time 15 minutes)",potentiation of the tremor measured at the peak ([3]; administered 60 minutes before the muscarinic agonist)
"AZEP-(S)(N.tau.-Me)His-(1S,3S,4R)ABH-NH2 [Example 1]",0.1,-25.5,-61.1,0.3,–,–,–,–,–,–
NC(=O)[C@@H]1CCCN1C(=O)[C@H](Cc1cnc[nH]1)NC(=O)[C@@H]1CCC(=O)N1 [TRH],~10,–,–,5,-1.9,-35,+4.8%,+50%,+20%,no longer potentiates the tremor
